Source: patent publication US20090221829A1 (priority 2005, published 2009)
Values after ≈ are worked out from the molar mass of the structure shown.

What was measured:
various kinds of Candida = assay: MIC (Minimal Inhibitory Concentration) data; type: cell-based; conditions: unit assumed
[1] = system: Candida albicans(KCTC 1940), Aspergillus niger (ATCC 9642) and Saccharomyces cerevisiae; assay: Relative antifungal activity by agar dilution method (vs Miconazole); type: cell-based;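 note: scores 5 to 7 mean a lower fungicidal concentration than Miconazole so higher is more potent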
From the text: Novel compounds represented by the above chemical formula (I), and the relative activities in accordance with the agar dilution method in Sabouraud dextrose agar media, Czapek agar media and Yeast Extract-Peptone-Dextrose agar media for Candida albicans(KCTC 1940), Aspergillus niger (ATCC 9642) and Saccharomyces cerevisiae are described respectively in following Table 1.

[2] = agar dilution method, fungicidal concentration relative to control drug Miconazole (=4)

## C[C@@H]1[C@H](O)[C@@H](C)/C=C/C=C/C=C/C=C/C=C/C=C/C=C/[C@H](O[C@@H]2O[C@H](C)[C@@H](O)[C@H](N)[C@@H]2O)C[C@@H]2O[C@](O)(C[C@@H](O)C[C@@H](O)[C@H](O)CC[C@@H](O)C[C@@H](O)CC(=O)O[C@H]1C)C[C@H](O)[C@H]2C(=O)O [Amphotericin B, reference compound]
Various kinds of Candida; C. albicans ATCC 11651
  MIC: 1.56 µg/mL (≈ 1.69 µM)
Various kinds of Candida; C. albicans ATCC 28838
  MIC: 3.12 µg/mL (≈ 3.38 µM)
Various kinds of Candida; C. albicans IFO 1385
  MIC: 1.56 µg/mL (≈ 1.69 µM)
Various kinds of Candida; C. albicans OY-003
  MIC: 0.78 µg/mL (≈ 0.844 µM)
Various kinds of Candida; C. albicans OY-019
  MIC: 0.4 µg/mL (≈ 0.433 µM)
Various kinds of Candida; C. albicans U.K
  MIC: 3.12 µg/mL (≈ 3.38 µM)
Various kinds of Candida; C. albicnas ATCC 10231
  MIC: 1.56 µg/mL (≈ 1.69 µM)
Various kinds of Candida; C. glabrata
  MIC: 1.56 µg/mL (≈ 1.69 µM)
Various kinds of Candida; C. glulliermondi
  MIC: 1.56 µg/mL (≈ 1.69 µM)
Various kinds of Candida; C. krusei (KCTC7273)
  MIC: 0.78 µg/mL (≈ 0.844 µM)
Various kinds of Candida; C. parapsilosis
  MIC: 3.12 µg/mL (≈ 3.38 µM)

## COc1cc2c(cc1OC)C(C)=[N+](Cc1c(F)cccc1F)CC2.[Cl-] [Compound No. 56, 1-methyl-2-(2,6-difluorophenyl)methyl-3,4-dihydro-6,7-dimethoxyisoquinolinium chloride]
[1]; [2]
  Relative Activity: 6

## COc1cc2c(cc1OC)C(CC(C)C)=[N+](Cc1ccccc1F)CC2.[Cl-] [Compound No. 8, 1-(2-methyl)propyl-2-(2-fluorophenyl)methyl-3,4-dihydro-6,7-dimethoxyisoquinolinium chloride]
[1]; [2]
  Relative Activity: 5

## CCCCCCCCCCCC1=[N+](Cc2c(F)cccc2F)CCc2cc(OC)c(OC)cc21.[Cl-] [Compound No. 59, 1-n-undecyl-2-(2,6-difluorophenyl)methyl-3,4-dihydro-6,7-dimethoxyisoquinolinium chloride]
[1]; [2]
  Relative Activity: 1

## COc1cc2c(cc1OC)C(C(C)C)=[N+](Cc1ccccc1[N+](=O)[O-])CC2.[Cl-] [Compound No. 72, 1-i-propyl-2-(2-nitrophenyl)methyl-3,4-dihydro-6,7-dimethoxyisoquinolinium chloride]
[1]; [2]
  Relative Activity: 6

## COc1cc2c(cc1OC)C(c1ccccc1F)=[N+](Cc1c(F)cccc1Cl)CC2.[Cl-] [Compound No. 69, 1-(2-fluorophenyl)-2-(2-chloro-6-fluorophenyl)methyl-3,4-dihydro-6,7-dimethoxyisoquinolinium chloride]
[1]; [2]
  Relative Activity: 6

## CCCCCCC1=[N+](Cc2ccccc2F)CCc2cc(OC)ccc21.[Cl-] [Compound No. 86, 1-n-hexyl-2-(2-fluorophenyl)methyl-3,4-dihydro-6-methoxyisoquinolinium chloride]
[1]; [2]
  Relative Activity: 5

## COc1cc2c(cc1OC)C(CCc1ccc(C(C)(C)C)cc1)=[N+](Cc1cccc(OC)c1OCc1c(F)cccc1Cl)CC2 [Compound No. 133, 1-(2-(4-t-butylphenyl))ethyl-2-(2-(2-chloro-6-fluorobenzyloxy)-3-methoxyphenyl)methyl-3,4-dihydro-6,7-dimethoxyisoquinolinium chloride]
[1]; [2]
  Relative Activity: 1

## CCCCCCCC1=[N+](Cc2ccccc2[N+](=O)[O-])CCc2cc(OC)c(OC)cc21.[Cl-] [Compound No. 73, 1-n-heptyl-2-(2-nitrophenyl)methyl-3,4-dihydro-6,7-dimethoxyisoquinolinium chloride]
[1]; [2]
  Relative Activity: 5

## COc1ccc(C[N+]2=C(C)c3cc(OC)c(OC)cc3CC2)cc1.[Cl-] [Compound No. 33, 1-methyl-2-(4-methoxyphenyl)methyl-3,4-dihydro-6,7-dimethoxyisoquinolinium chloride]
[1]; [2]
  Relative Activity: 6

## CCCCCCCC1=[N+](Cc2c(F)cccc2F)CCc2cc(OC)c(OC)cc21.[Cl-] [Compound No. 61, 1-n-heptyl-2-(2,6-difluorophenyl)methyl-3,4-dihydro-6,7-dimethoxyisoquinolinium chloride]
[1]; [2]
  Relative Activity: 4

## CCCCCCCCCCCC1=[N+](Cc2ccc(NC(=O)OCC)c(NC(=O)OCC)c2)CCc2cc(OC)c(OC)cc21.[Cl-] [Compound No. 122, 6,7-dimethoxy-2-(3,4-bis(ethoxy Carbonylamino)phenyl)methyl-3,4-dihydro-1-undecylisoquinolinium chloride]
[1]; [2]
  Relative Activity: 2

## CC(C)(C)c1ccc(C2=[N+](Cc3ccc(C(F)(F)F)cc3)CCc3cc4c(cc32)OCO4)cc1.[Cl-] [Compound No. 110, 1-(4-t-butylphenyl)-2-(4-trifluoromethylphenyl)methyl-3,4-dihydro-6,7-methylenedioxyisoquinolinium chloride]
[1]; [2]
  Relative Activity: 6

## CCCCCCCCCCCC1=[N+](Cc2ccc(C(F)(F)F)cc2)CCc2cc(F)ccc21.[Cl-] [Compound No. 137, 1-undecyl-2-(4-trifluoromethylphenyl)methyl-3,4-dihydro-6-fluoro isoquinolinium chloride]
[1]; [2]
  Relative Activity: 1

## COc1cc2c(cc1OC)C(c1cccc(C(F)(F)F)c1)=[N+](Cc1ccccc1F)CC2.[Cl-] [Compound No. 23, 1-(3-trifluoromethylphenyl)-2-(2-fluorophenyl) methyl-3,4-dihydro-6,7-dimethoxyisoquinolinium chloride]
[1]; [2]
  Relative Activity: 6

## COc1cc2cc[n+](Cc3c(F)cccc3Cl)cc2cc1OC.[Cl-] [Compound No. 141, 2-(2-chloro-6-fluorophenyl)methyl-6,7-dimethoxyisoquinolinium chloride]
[1]; antifungal activity relative to Miconazole, agar dilution
  Relative Activity: 6

## COc1cc2c(cc1OC)C(Cc1ccccc1F)=[N+](Cc1ccccc1F)CC2.[Cl-] [Compound No. 24, 1-(2-fluorophenyl)methyl-2-(2-fluorophenyl)methyl-3,4-dihydro-6,7-dimethoxyisoquinolinium chloride]
[1]; [2]
  Relative Activity: 6

## COc1cc2c(cc1OC)C(c1cccc(Cl)c1)=[N+](Cc1ccccc1F)CC2.[Cl-] [Compound No. 19, 1-(3-chlorophenyl)-2-(2-fluorophenyl)methyl-3,4-dihydro-6,7-dimethoxyisoquinolinium chloride]
[1]; [2]
  Relative Activity: 6

## COc1cc2c(cc1OC)C(c1cccc(F)c1F)=[N+](Cc1ccccc1F)CC2.[Cl-] [Compound No. 15, 1-(2,3-difluorophenyl)-2-(2-fluorophenyl)methyl-3,4-dihydro-6,7-dimethoxyisoquinolinium chloride]
[1]; [2]
  Relative Activity: 6

## COc1cc2c(cc1OC)C(CCc1ccc(C(C)(C)C)cc1)=[N+](Cc1ccccc1F)CC2 [Compound No. 124, 1-(2-(4-t-butylphenyl))ethyl-2-(2-fluorophenyl)methyl-3,4-dihydro-6,7-dimethoxyisoquinolinium chloride]
[1]; [2]
  Relative Activity: 2

## CCCCCCCCCCCCCCCC1=[N+](Cc2ccccc2F)CCc2cc(OC)ccc21.[Cl-] [Compound No. 89, 1-n-pentadecyl-2-(2-fluorophenyl)methyl-3,4-dihydro-6-methoxyisoquinolinium chloride]
[1]; [2]
  Relative Activity: 1

## CCC1=[N+](Cc2ccccc2F)CCc2cc(OC)ccc21.[Cl-] [Compound No. 81, 1-ethyl-2-(2-fluorophenyl)methyl-3,4-dihydro-6-methoxyisoquinolinium chloride]
[1]; [2]
  Relative Activity: 6

## CCCCCCCC1=[N+](Cc2ccc(C(F)(F)F)cc2)CCc2cc3c(cc21)OCO3.[Cl-] [Compound No. 108, 1-n-heptyl-2-(4-trifluoromethylphenyl)methyl-3,4-dihydro-6,7-methylenedioxyisoquinolinium chloride]
[1]; [2]
  Relative Activity: 4

## CCCCCCCCCCCC1=[N+](Cc2ccc(C(F)(F)F)cc2)CCc2cc(OC)c(OC)cc21.[Cl-] [Compound No. 29, 1-n-undecyl-2-(4-trifluoromethylphenyl)methyl-3,4-dihydro-6,7-dimethoxyisoquinolinium chloride]
[1]; [2]
  Relative Activity: 1

## COc1cc2c(cc1OC)C(c1ccc(F)c(F)c1)=[N+](Cc1ccccc1F)CC2.[Cl-] [Compound No. 17, 1-(3,4-difluorophenyl)-2-(2-fluorophenyl)methyl-3,4-dihydro-6,7-dimethoxyisoquinolinium chloride]
[1]; [2]
  Relative Activity: 6

## COc1cc2c(cc1OC)CC[N+](Cc1ccccc1F)=C2.[Cl-] [Compound No. 1, 2-(2-fluorophenyl)methyl-3,4-dihydro-6,7-dimethoxy-isoquinolinium chloride]
[1]; [2]
  Relative Activity: 6

## COc1ccc2c(c1)CC[N+](Cc1ccccc1F)=C2CC(C)C.[Cl-] [Compound No. 84, 1-(2-methyl)propyl-2-(2-fluorophenyl)methyl-3,4-dihydro-6-methoxyisoquinolinium chloride]
[1]; [2]
  Relative Activity: 6

## COc1cc2c(cc1OC)C(c1ccc(C(C)(C)C)cc1)=[N+](Cc1ccc(C(F)(F)F)cc1)CC2.[Cl-] [Compound No. 32, 1-(4-t-butylphenyl)-2-(4-trifluoromethylphenyl)methyl-3,4-dihydro-6,7-dimethoxyisoquinolinium chloride]
[1]; [2]
  Relative Activity: 6

## CC1=[N+](Cc2ccc(C(F)(F)F)cc2)CCc2cc3c(cc21)OCO3.[Cl-] [Compound No. 107, 1-methyl-2-(4-trifluoromethylphenyl)methyl-3,4-dihydro-6,7-methylenedioxyisoquinolinium chloride]
[1]; [2]
  Relative Activity: 6

## COc1cc2c(cc1OC)C(C(C)C)=[N+](Cc1ccccc1F)CC2.[Cl-] [Compound No. 6, 1-i-propyl-2-(2-fluorophenyl)methyl-3,4-dihydro-6,7-dimethoxyisoquinolinium chloride]
[1]; [2]
  Relative Activity: 5

## CCCCCC1=[N+](Cc2c(F)cccc2Cl)CCc2cc(OC)c(OC)cc21.[Cl-] [Compound No. 66, 1-n-pentyl-2-(2-chloro-6-fluorophenyl)methyl-3,4-dihydro-6,7-dimethoxyisoquinolinium chloride]
[1]; [2]
  Relative Activity: 5

## COc1ccc2c(c1)CC[N+](Cc1ccccc1F)=C2C.[Cl-] [Compound No. 80, 1-methyl-2-(2-fluorophenyl)methyl-3,4-dihydro-6-methoxyisoquinolinium chloride]
[1]; [2]
  Relative Activity: 6

## COc1ccc2c(c1)CC[N+](Cc1ccccc1F)=C2c1ccccc1F.[Cl-] [Compound No. 90, 1-(2-fluorophenyl)-2-(2-fluorophenyl)methyl-3,4-dihydro-6-methoxyisoquinolinium chloride]
[1]; [2]
  Relative Activity: 6
